This is an account of results in patent US20240382474A1, “ENPP1 MODULATORS AND USES THEREOF” (Vir Biotechnology, Inc., priority 2021, published 2024).

The assay concerns the target T1, human ENPP1 enzymatic domain (Homo sapiens, UniProt P22413).
T1 construct: recombinant protein containing the human ENPP1 enzymatic domain; purchased Viva Biotech
T1 sequence (P22413 191-591 limits assumed): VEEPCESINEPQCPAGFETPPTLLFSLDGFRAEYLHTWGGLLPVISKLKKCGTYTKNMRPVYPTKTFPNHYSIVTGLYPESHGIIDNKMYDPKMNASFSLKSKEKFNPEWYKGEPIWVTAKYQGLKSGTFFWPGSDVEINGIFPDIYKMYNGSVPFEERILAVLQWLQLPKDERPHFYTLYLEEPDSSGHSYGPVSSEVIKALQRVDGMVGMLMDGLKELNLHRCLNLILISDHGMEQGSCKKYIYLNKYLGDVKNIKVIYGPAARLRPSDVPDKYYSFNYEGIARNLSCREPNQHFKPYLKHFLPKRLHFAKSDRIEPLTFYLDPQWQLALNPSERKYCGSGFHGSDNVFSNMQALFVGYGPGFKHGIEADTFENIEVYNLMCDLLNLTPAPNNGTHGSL
Nature of the assay: ENPP1 Enzymatic Inhibition Assay (2′3′-cGAMP substrate, AMP-Glo luminescence). In kind it is biochemical. The following applies: 1 nM ENPP1, 20 uM 2′3′-cGAMP, 30 minutes at 37° C. The method, then:
The inhibition of ENPP1's phosphodiesterase activity were tested in a purified enzymatic assay using 2′3′-cyclic GAMP as a substrate which allowed for the release of cleaved AMP to be monitored using a luminescent assay.
Putative inhibitors were diluted in assay buffer (50 mM Tris pH 8.0, 250 mM NaCl, 0.5 mM CaCl2), 1 uM ZnCl2, 1% DMSO) and pre-incubated for 15 minutes at 37° C. with recombinant protein containing the human ENPP1 enzymatic domain (Viva Biotech). The enzymatic reaction was initiated upon addition of the 2′3′-cGAMP substrate. The final reaction concentrations were 1 nM ENPP1 and 20 uM 2′3′-cGAMP substrate in a 25 uL volume. Inhibitor concentrations ranged from 10 uM to 0.056 nM. The reaction was incubated for 30 minutes at 37° C.
After reacting for 30 minutes, the amount of AMP generated from the cleavage of 2′3′-cGAMP was determined using the Promega AMP-Glo method according to the manufacturer's protocol. First, AMP-Glo reagent 1 was added and incubated with the reaction mix for 1 hour at room temperature. Second, AMP Detection solution was added and the mixture was incubated for an additional hour. The luminescence of the mixture was read on a Perkin Elmer Ensight plate reader.
The maximum and minimum levels of ENPP1 activity were established using no inhibitor and no enzyme controls, respectively. The activity observed using ENPP1 inhibitors was quantified as the percent of activity relative to these controls. IC50 values were calculated using CDD Vault by fitting a sigmoidal variable slope nonlinear regression model to the data.
Molecule `COc1ccc2c(Nc3ccc([S@](=N)(=O)NC[C@H](C)O)cc3)ccnc2c1` [Compound 37, (R)-N-((S)-2-hydroxypropyl)-4-((7-methoxyquinolin-4-yl)amino)benzenesulfonimidamide] displayed an IC50 of less than 10 nM.
Under `COc1ccc2c(Nc3ccc([S@@](=N)(=O)NC[C@H](C)O)cc3)ccnc2c1` [Compound 38, (S)-N-((S)-2-hydroxypropyl)-4-((7-methoxyquinolin-4-yl)amino)benzenesulfonimidamide] stands less than 10 nM.
Regarding `COc1ccc2c(Nc3ccc([S@](=N)(=O)N[C@@H](C)CO)cc3)ccnc2c1` [Compound 39, (R)-N-((S)-1-hydroxypropan-2-yl)-4-((7-methoxyquinolin-4-yl)amino)benzenesulfonimidamide], the IC50 is less than 10 nM.
Molecule `COc1ccc2c(Nc3ccc([S@@](=N)(=O)N[C@@H](C)CO)cc3)ccnc2c1` [Compound 40, (S)-N-((S)-1-hydroxypropan-2-yl)-4-((7-methoxyquinolin-4-yl)amino)benzenesulfonimidamide] gave an IC50 of 10 to 100 nM.
`COc1ccc2c(Nc3ccc([S@](=N)(=O)N[C@@H](C)c4ccnn4C)cc3)ccnc2c1` [Compound 41, (R)-4-((7-methoxyquinolin-4-yl)amino)-N-((S)-1-(1-methyl-1H-pyrazol-5-yl)ethyl)benzenesulfonimidamide]: the IC50 lay within 10 to 100 nM.
Under `COc1ccc2c(Nc3ccc([S@@](=N)(=O)N[C@@H](C)c4ccnn4C)cc3)ccnc2c1` [Compound 42, (S)-4-((7-methoxyquinolin-4-yl)amino)-N-((S)-1-(1-methyl-1 H-pyrazol-5-yl)ethyl)benzenesulfonimidamide] stands less than 10 nM; under `COc1ccc2c(Oc3ccc([S@](=N)(=O)NC[C@H](O)C(C)(C)C)cc3)ccnc2c1` [Compound 43, (R)-N-((R)-2-hydroxy-3,3-dimethylbutyl)-4-((7-methoxyquinolin-4-yl)oxy)benzenesulfonimidamide], less than 10 nM.
Next, `COc1ccc2c(Oc3ccc([S@@](=N)(=O)NC[C@H](O)C(C)(C)C)cc3)ccnc2c1` [Compound 44, (S)-N-((R)-2-hydroxy-3,3-dimethylbutyl)-4-((7-methoxyquinolin-4-yl)oxy)benzenesulfonimidamide]: 10 to 100 nM; `COc1ccc2c(Nc3ccc([S@](=N)(=O)NC[C@H](C)O)cc3F)ccnc2c1` [Compound 45, (R)-3-fluoro-N-((S)-2-hydroxypropyl)-4-((7-methoxyquinolin-4-yl)amino)benzenesulfonimidamide]: 10 to 100 nM; `COc1ccc2c(Nc3ccc([S@@](=N)(=O)NC[C@H](C)O)cc3F)ccnc2c1` [Compound 46, (S)-3-fluoro-N-((S)-2-hydroxypropyl)-4-((7-methoxyquinolin-4-yl)amino)benzenesulfonimidamide]: less than 10 nM.
On to `COc1ccc2c(Nc3ccc([S@](=N)(=O)NC[C@H](C)O)c(F)c3)ccnc2c1` [Compound 47, (R)-2-fluoro-N-((S)-2-hydroxypropyl)-4-((7-methoxyquinolin-4-yl)amino)benzenesulfonimidamide], for which the IC50 is less than 10 nM.
As for `COc1ccc2c(Nc3ccc([S@@](=N)(=O)NC[C@H](C)O)c(F)c3)ccnc2c1` [Compound 48, (S)-2-fluoro-N-((S)-2-hydroxypropyl)-4-((7-methoxyquinolin-4-yl)amino)benzenesulfonimidamide], the half-maximal inhibitory concentration (IC50) is less than 10 nM.
As to `COc1ccc2c(Nc3ccc([S@](=N)(=O)NCCCn4cnnc4)cc3)ccnc2c1` [Compound 49, (R)-N-(3-(4H-1,2,4-triazol-4-yl)propyl)-4-((7-methoxyquinolin-4-yl)amino)benzenesulfonimidamide], the IC50 was less than 10 nM.
In the case of `COc1ccc2c(Nc3ccc([S@@](=N)(=O)NCCCn4cnnc4)cc3)ccnc2c1` [Compound 50, (S)-N-(3-(4H-1,2,4-triazol-4-yl)propyl)-4-((7-methoxyquinolin-4-yl)amino)benzenesulfonimidamide], the IC50 is less than 10 nM.
In the case of `COc1cc2nccc(Nc3ccc([S@](=N)(=O)NC[C@@H](C)O)cc3)c2cc1OC` [Compound 51, (R)-4-((6,7-dimethoxyquinolin-4-yl)amino)-N-((R)-2-hydroxypropyl)benzenesulfonimidamide], the IC50 was in the range of 10 to 100 nM.
`COc1cc2nccc(Nc3ccc([S@@](=N)(=O)NC[C@@H](C)O)cc3)c2cc1OC` [Compound 52, (S)-4-((6,7-dimethoxyquinolin-4-yl)amino)-N-((R)-2-hydroxypropyl)benzenesulfonimidamide] displayed an IC50 of less than 10 nM.
Take `COc1ccc2c(Nc3ccc([S@](=N)(=O)NCCO)cc3)ccnc2c1` [Compound 53, (R)-N-(2-hydroxyethyl)-4-((7-methoxyquinolin-4-yl)amino)benzenesulfonimidamide]: the IC50 was less than 10 nM.
For the molecule `COc1ccc2c(Nc3ccc([S@@](=N)(=O)NCCO)cc3)ccnc2c1` [Compound 54, (S)-N-(2-hydroxyethyl)-4-((7-methoxyquinolin-4-yl)amino)benzenesulfonimidamide], the IC50 is less than 10 nM.
In the case of `COc1ccc2c(Nc3ccc([S@](=N)(=O)NC[C@@H](C)O)cc3)ccnc2c1` [Compound 55, (R)-N-((R)-2-hydroxypropyl)-4-((7-methoxyquinolin-4-yl)amino)benzenesulfonimidamide], the IC50 is less than 10 nM.
As for `COc1cccc2c(Nc3ccc([S@](=N)(=O)NCCO)cc3)ccnc12` [Compound 57, (R)-N-(2-hydroxyethyl)-4-((8-methoxyquinolin-4-yl)amino)benzenesulfonimidamide], the IC50 was greater than 100 nM.
Regarding `COc1cccc2c(Nc3ccc([S@@](=N)(=O)NCCO)cc3)ccnc12` [Compound 58, (S)-N-(2-hydroxyethyl)-4-((8-methoxyquinolin-4-yl)amino)benzenesulfonimidamide], the IC50 is less than 10 nM.
`COc1ccc2c(Nc3ccc([S@](=N)(=O)NC[C@H](O)C(C)(C)C)cc3)ccnc2c1` [Compound 59, (R)-N-((R)-2-hydroxy-3,3-dimethylbutyl)-4-((7-methoxyquinolin-4-yl)amino)benzenesulfonimidamide] had an IC50 of less than 10 nM.
On to `COc1ccc2c(Nc3ccc([S@@](=N)(=O)NC[C@H](O)C(C)(C)C)cc3)ccnc2c1` [Compound 60, (S)-N-((R)-2-hydroxy-3,3-dimethylbutyl)-4-((7-methoxyquinolin-4-yl)amino)benzenesulfonimidamide], for which the IC50 is less than 10 nM.
In the case of `COc1cccc2c(Nc3ccc([S@](=N)(=O)NC[C@@H](C)O)cc3)ncnc12` [Compound 61, (R)-N-((R)-2-hydroxypropyl)-4-((8-methoxyquinazolin-4-yl)amino)benzenesulfonimidamide], the IC50 is greater than 100 nM.
Under `COc1cccc2c(Nc3ccc([S@@](=N)(=O)NC[C@@H](C)O)cc3)ncnc12` [Compound 62, (S)-N-((R)-2-hydroxypropyl)-4-((8-methoxyquinazolin-4-yl)amino)benzenesulfonimidamide] stands 10 to 100 nM; under `COc1ccc2c(Nc3ccc([S@](=N)(=O)NC[C@@H](C)O)cc3)ncnc2c1` [Compound 63, (R)-N-((R)-2-hydroxypropyl)-4-((7-methoxyquinazolin-4-yl)amino)benzenesulfonimidamide], 10 to 100 nM; under `COc1ccc2c(Nc3ccc([S@@](=N)(=O)NC[C@@H](C)O)cc3)ncnc2c1` [Compound 64, (S)-N-((R)-2-hydroxypropyl)-4-((7-methoxyquinazolin-4-yl)amino)benzenesulfonimidamide], less than 10 nM.
Next, `COc1cc2nccc(Nc3ccc([S@@](=N)(=O)NC4CC4)cc3)c2cc1F` [Compound 67, (S)-N-cyclopropyl-4-((6-fluoro-7-methoxyquinolin-4-yl)amino)benzenesulfonimidamide]: less than 10 nM; `COc1cc2nccc(Nc3ccc([S@@](=N)(=O)NC[C@@H](C)O)cc3)c2cc1F` [Compound 68, (S)-4-((6-fluoro-7-methoxyquinolin-4-yl)amino)-N-((R)-2-hydroxypropyl)benzenesulfonimidamide]: less than 10 nM.
Under `COc1ccc2c(Nc3ccc([S@@](=N)(=O)NC[C@@H](C)OC(C)=O)cc3)ccnc2c1` [Compound 69, (R)-1-(((S)-4-((7-methoxyquinolin-4-yl)amino)phenyl)sulfonoamidimidamido)propan-2-yl acetate] stands less than 10 nM.
